Source: patent US20230113037A1 (Bayer Aktiengesellschaft, priority 2019, published 2023)

Assays:
[1] = molecular target: T1, AHR (Homo sapiens, UniProt P35869); assay: In vitro assay 1: antagonism in human cell line (AHR transactivation, firefly luciferase reporter, kynurenic acid prestimulated); format: cell-based; conditions: AHR Antagonism Human IC50 [M]
T1 construct: U87 MG glioblastoma cells (ATCC #HTB-14) endogenously expressing AHR; endogenous in cells; host or cells: U87 MG glioblastoma cells (ATCC #HTB-14)
T1 sequence (P35869 11-848): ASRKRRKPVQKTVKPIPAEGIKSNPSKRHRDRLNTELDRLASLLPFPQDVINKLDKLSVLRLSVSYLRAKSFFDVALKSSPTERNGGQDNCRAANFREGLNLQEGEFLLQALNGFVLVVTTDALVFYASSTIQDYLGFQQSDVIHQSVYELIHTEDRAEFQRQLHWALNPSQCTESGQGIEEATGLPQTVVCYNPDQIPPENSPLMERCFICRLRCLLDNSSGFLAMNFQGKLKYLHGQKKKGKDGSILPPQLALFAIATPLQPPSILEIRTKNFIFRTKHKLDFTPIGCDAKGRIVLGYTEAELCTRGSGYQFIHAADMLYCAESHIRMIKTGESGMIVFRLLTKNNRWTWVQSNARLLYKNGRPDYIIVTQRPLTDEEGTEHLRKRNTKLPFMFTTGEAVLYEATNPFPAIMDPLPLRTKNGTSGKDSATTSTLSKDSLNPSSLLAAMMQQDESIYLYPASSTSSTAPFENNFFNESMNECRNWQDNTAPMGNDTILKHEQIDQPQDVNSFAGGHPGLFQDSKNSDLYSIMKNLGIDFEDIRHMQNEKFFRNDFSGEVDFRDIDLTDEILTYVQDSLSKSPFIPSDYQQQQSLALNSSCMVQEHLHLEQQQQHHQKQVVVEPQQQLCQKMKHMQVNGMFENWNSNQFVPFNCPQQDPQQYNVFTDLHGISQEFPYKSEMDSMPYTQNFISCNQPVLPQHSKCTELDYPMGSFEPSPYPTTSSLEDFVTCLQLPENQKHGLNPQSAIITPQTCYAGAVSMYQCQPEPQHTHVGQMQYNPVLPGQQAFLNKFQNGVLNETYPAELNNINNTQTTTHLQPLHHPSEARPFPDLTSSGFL
In short: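 Antagonism is measured against kynurenic acid prestimulation in U87 MG glioblastoma cells carrying stable DRE-luciferase and Renilla reporters. Positive inhibition control: 150 μM kynurenic acid with 5 μM staurosporine. Values are normalized to controls; repeats are averaged or given as medians.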

[2] = molecular target: T2, AHR (Mus musculus, UniProt P30561); assay: In vitro assay 3: antagonism in mouse cell line (AHR transactivation, firefly luciferase reporter, kynurenic acid prestimulated); format: cell-based; conditions: mouse Hepa 1c1c7 cells, 200 μM kynurenic acid, 20 hours, read-out: AHR Antagonism Mouse IC50
T2 sequence (P30561 1-848 P471L/N533S/M589L): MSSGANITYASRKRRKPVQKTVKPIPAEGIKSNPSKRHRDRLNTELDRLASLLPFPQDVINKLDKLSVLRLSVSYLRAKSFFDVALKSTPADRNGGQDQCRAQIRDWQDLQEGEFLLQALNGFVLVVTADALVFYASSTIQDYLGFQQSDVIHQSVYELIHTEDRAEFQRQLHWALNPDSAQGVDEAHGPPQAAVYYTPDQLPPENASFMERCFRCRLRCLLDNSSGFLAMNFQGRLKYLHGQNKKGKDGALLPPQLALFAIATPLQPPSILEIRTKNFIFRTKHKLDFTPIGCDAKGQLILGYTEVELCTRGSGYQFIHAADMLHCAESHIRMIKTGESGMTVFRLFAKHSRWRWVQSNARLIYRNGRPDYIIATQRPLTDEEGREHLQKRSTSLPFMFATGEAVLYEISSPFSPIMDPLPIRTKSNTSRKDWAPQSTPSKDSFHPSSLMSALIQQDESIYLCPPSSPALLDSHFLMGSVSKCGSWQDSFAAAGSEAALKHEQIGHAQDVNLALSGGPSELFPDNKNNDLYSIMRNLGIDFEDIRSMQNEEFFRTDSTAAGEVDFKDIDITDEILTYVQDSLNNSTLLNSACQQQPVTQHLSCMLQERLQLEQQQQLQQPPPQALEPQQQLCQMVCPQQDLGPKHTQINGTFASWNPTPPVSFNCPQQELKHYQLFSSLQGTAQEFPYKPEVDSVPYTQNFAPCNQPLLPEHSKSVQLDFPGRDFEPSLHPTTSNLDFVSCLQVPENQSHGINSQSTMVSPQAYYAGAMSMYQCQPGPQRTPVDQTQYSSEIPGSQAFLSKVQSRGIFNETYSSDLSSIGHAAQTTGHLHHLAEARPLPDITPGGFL
In short: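 Luminescence from an AHR-dependent DRE-luciferase reporter, stably integrated in mouse cells, quantifies blockade of kynurenic acid-driven activation. Unstimulated cells mark maximal inhibition; normalization uses both control types, and multiply tested compounds carry mean or median values.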

SMILES	IC50 [1]	IC50 [2]
Cc1cc2c(cc1C(F)F)nc(N[C@@H]1CCCCNC1=O)n1nc(-c3cnn(C)c3)nc21 [Example 405, (3R)-3-{[8-(difluoromethyl)-9-methyl-2-(1-methyl-1H-pyrazol-4-yl)[1,2,4]triazolo[1,5-c]quinazolin-5-yl]amino}azepan-2-one]	3.41e-07 M	792 nM
Cc1cc(C(F)F)c2nc(N[C@@H]3CCCCNC3=O)n3nc(-c4cnn(C)c4)nc3c2c1 [Example 406, (3R)-3-{[7-(difluoromethyl)-9-methyl-2-(1-methyl-1H-pyrazol-4-yl)[1,2,4]triazolo[1,5-c]quinazolin-5-yl]amino}azepan-2-one]	1.01e-07 M	7750 nM
Cc1ccc2nc(N[C@@H]3CCCCNC3=O)n3nc(-c4cn(C)nc4C(F)(F)F)nc3c2c1 [Example 407, (3R)-3-({9-methyl-2-[1-methyl-3-(trifluoromethyl)-1H-pyrazol-4-yl][1,2,4]triazolo[1,5-c]quinazolin-5-yl}amino)azepan-2-one]	3.1e-07 M	246 nM
CN(C)c1cccc(-c2nc3c4ccccc4nc(N[C@@H]4CNCCNC4=O)n3n2)c1 [Example 408, (6R)-6-({2-[3-(dimethylamino)phenyl][1,2,4]triazolo[1,5-c]quinazolin-5-yl}amino)-1,4-diazepan-5-one]	1.85e-07 M	13.6 nM
COc1ccc(-c2nc3c4ccccc4nc(N[C@@H]4CNCCNC4=O)n3n2)cc1OC [Example 409, (6R)-6-{[2-(3,4-dimethoxyphenyl)[1,2,4]triazolo[1,5-c]quinazolin-5-yl]amino}-1,4-diazepan-5-one]	6.98e-08 M	17.1 nM

Next, values leading:

IC50 [1]	IC50 [2]	SMILES
1.53e-08 M	4.73 nM	COc1ccc(-c2nc3c4ccccc4nc(N[C@@H]4CNCCNC4=O)n3n2)c(C)c1 [Example 410, (6R)-6-{[2-(4-methoxy-2-methylphenyl)[1,2,4]triazolo[1,5-c]quinazolin-5-yl]amino}-1,4-diazepan-5-one]
1.77e-07 M	11.2 nM	O=C1NCCNC[C@H]1Nc1nc2ccccc2c2nc(-c3ccc(OC4CC4)cc3)nn12 [Example 411, (6R)-6-({2-[4-(cyclopropyloxy)phenyl][1,2,4]triazolo[1,5-c]quinazolin-5-yl}amino)-1,4-diazepan-5-one]
8.37e-08 M	236 nM	O=C1NCCNC[C@H]1Nc1nc2ccccc2c2nc(-c3ccc(Br)o3)nn12 [Example 412, (6R)-6-{[2-(5-bromofuran-2-yl)[1,2,4]triazolo[1,5-c]quinazolin-5-yl]amino}-1,4-diazepan-5-one]
8.94e-08 M	62.1 nM	Nc1cccc(-c2nc3c4ccccc4nc(N[C@@H]4CNCCNC4=O)n3n2)c1 [Example 413, (6R)-6-{[2-(3-aminophenyl)[1,2,4]triazolo[1,5-c]quinazolin-5-yl]amino}-1,4-diazepan-5-one]
1.85e-08 M	6.47 nM	CC(C)Oc1ccc(-c2nc3c4ccccc4nc(N[C@@H]4CNCCNC4=O)n3n2)cc1 [Example 415, (6R)-6-[(2-{4-[(propan-2-yl)oxy]phenyl}[1,2,4]triazolo[1,5-c]quinazolin-5-yl)amino]-1,4-diazepan-5-one]
2.1e-06 M	354 nM	O=C1NCCNC[C@H]1Nc1nc2ccccc2c2nc(-c3cnn(CC4CC4)c3)nn12 [Example 416, (6R)-6-({2-[1-(cyclopropylmethyl)-1H-pyrazol-4-yl][1,2,4]triazolo[1,5-c]quinazolin-5-yl}amino)-1,4-diazepan-5-one]
1.11e-06 M	7300 nM	Cn1cc(-c2nc3c4c(Cl)cccc4nc(N[C@@H]4CNCCNC4=O)n3n2)cn1 [Example 417]
3.49e-09 M	3.46 nM	O=C1NCCNC[C@H]1Nc1nc2c(Cl)cccc2c2nc(-c3cccc(F)c3)nn12 [Example 419, (6R)-6-{[7-chloro-2-(3-fluorophenyl)[1,2,4]triazolo[1,5-c]quinazolin-5-yl]amino}-1,4-diazepan-5-one]
